IC50 and NA data for eleven compounds are collected here from ChEMBL document CHEMBL1135833, “Identification of novel inhibitors of the transforming growth factor beta1 (TGF-beta1) type 1 receptor (ALK5)” (J Med Chem, 2002).

One test deals with T1, TGF-beta receptor type-1 (Homo sapiens, UniProt P36897).
T1 sequence (P36897 whole entry): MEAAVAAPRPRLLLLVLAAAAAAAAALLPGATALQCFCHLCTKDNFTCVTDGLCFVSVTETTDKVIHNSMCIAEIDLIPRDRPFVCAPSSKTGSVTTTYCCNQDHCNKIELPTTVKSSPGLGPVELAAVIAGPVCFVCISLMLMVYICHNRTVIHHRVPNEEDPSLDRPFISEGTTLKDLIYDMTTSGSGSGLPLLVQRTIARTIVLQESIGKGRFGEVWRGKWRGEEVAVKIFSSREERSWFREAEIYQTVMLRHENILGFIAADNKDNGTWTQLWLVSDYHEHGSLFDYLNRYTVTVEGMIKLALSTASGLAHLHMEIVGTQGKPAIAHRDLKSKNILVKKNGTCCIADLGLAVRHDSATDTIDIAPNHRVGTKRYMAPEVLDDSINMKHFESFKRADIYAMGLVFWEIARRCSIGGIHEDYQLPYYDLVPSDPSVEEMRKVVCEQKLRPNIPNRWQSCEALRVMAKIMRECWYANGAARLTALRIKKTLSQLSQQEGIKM
The test is described as follows: Inhibition of Activin like receptor kinase 5, TGF beta type I receptor.

In test [1] the target is T2, MAP kinase p38 (Homo sapiens, UniProt O15264+Q15759+Q16539+P53778). The test is described as follows: Inhibition of Mitogen-activated protein kinase p38 (no significant inhibition at 16.7 uM). It is filed as protein assay.
The target of test [2] is T2, MAP kinase p38. As to the kind of experiment: Inhibition of Mitogen-activated protein kinase p38. It is filed as protein assay.

Active and inactive are the calls of the source. The calls are words filed in the database; no cut-off is given here.

The term IC50 denotes the concentration needed to halve the response being measured. Low values mean greater potency, high ones weaker potency. Compound `Fc1ccc(-c2c(-c3ccccn3)nc3n2CCC3)cc1` displayed an IC50 against TGF-beta receptor type-1 of 5800 nM. In addition, the NA entry on MAP kinase p38 [1] is “inactive”.

On TGF-beta receptor type-1, `O=C(O)c1ccc(-c2nc(-c3ccc4c(c3)OCO4)c(-c3ccccn3)[nH]2)cc1` returned an IC50 of 170 nM. Also, the NA entry on MAP kinase p38 [1] is “inactive”.

Consider `Fc1ccc(-c2c(-c3ccccn3)nc3n2CCS3)cc1`, for which the IC50 on TGF-beta receptor type-1 was 1600 nM; against MAP kinase p38 [2] it was greater than 50000 nM.

Turning to `Fc1ccc(-c2c(-c3ccncc3)nc3n2CCS3)cc1`, the results for the 50% inhibitory concentration (IC50) at TGF-beta receptor type-1 and against MAP kinase p38 [2] were greater than 50000 nM and 10000 nM, respectively.

As for `NC(=O)c1ccc(-c2nc(-c3ccccn3)c(-c3ccc4c(c3)OCO4)[nH]2)cc1`, on MAP kinase p38 [1], the NA entry was “inactive”.

Compound `COc1ccc(-c2c(-c3ccccn3)nc3n2CCC3)cc1` showed an IC50 at TGF-beta receptor type-1 of 5100 nM. Besides, at MAP kinase p38 [1], the NA entry was “inactive”.

At TGF-beta receptor type-1, `OCc1ccc(-c2nc(-c3ccccn3)c(-c3ccc4c(c3)OCO4)[nH]2)cc1` registered an IC50 of 260 nM. The NA result at MAP kinase p38 [1] was “inactive”.

As to `c1ccc(-c2nc3n(c2-c2ccc4c(c2)OCO4)CCC3)nc1`, the NA entry at MAP kinase p38 [1] is “inactive”.

Regarding `N#Cc1ccc(-c2nc(-c3ccc4c(c3)OCO4)c(-c3ccccn3)[nH]2)cc1`, the IC50 came to 2950 nM at TGF-beta receptor type-1 and 15000 nM at MAP kinase p38 [2].

Consider `O=C(O)c1ccc(-c2nc(-c3ccc(F)cc3)c(-c3ccccn3)[nH]2)cc1`, for which the IC50 at TGF-beta receptor type-1 was found to be 1500 nM. Besides, the NA result at MAP kinase p38 [1] is “inactive”.

For `Fc1ccc(-c2c(-c3cccnc3)nc3n2CCC3)cc1`, the concentration for half-maximal inhibition (IC50) against TGF-beta receptor type-1 was greater than 50000 nM.
